Source: article PMC3849221 (NeuroImage, 2013)
“And” between values parts separate entries of the source, which are not always exact repeats. Identical values can stand only once. “Also recorded” adds a separate entry of the source.

Key:
[1] = Pharmacological effects of injected 11C-SD5024 in healthy subjects; format: in vivo; settings: human, injected mass dose 242±47 pmol/kg, n=7
CB1 receptors = CB1 receptors (Macaca mulatta, UniProt Q71SP5); assay: Monkey brain PET with 11C-SD5024, baseline and rimonabant pre-blocked scans; settings: for VT Baseline: one value per monkey; for VT Preblocked: rimonabant 3 mg/kg i.v.
Chain of CB1 receptors (Q71SP5 whole entry): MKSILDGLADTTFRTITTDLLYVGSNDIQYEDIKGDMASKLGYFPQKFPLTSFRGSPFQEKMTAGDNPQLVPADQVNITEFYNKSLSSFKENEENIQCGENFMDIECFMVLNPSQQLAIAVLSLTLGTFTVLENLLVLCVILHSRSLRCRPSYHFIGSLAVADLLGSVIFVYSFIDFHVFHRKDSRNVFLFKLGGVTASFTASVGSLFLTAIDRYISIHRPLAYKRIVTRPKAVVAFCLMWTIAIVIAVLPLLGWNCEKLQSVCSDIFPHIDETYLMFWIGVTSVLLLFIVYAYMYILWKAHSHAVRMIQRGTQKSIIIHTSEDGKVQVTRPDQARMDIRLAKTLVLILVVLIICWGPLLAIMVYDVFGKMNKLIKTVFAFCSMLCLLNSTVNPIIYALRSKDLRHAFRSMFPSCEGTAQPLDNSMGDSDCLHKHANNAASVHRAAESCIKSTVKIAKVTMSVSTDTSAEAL

[2] = Measurement of 11C-SD5024 in human arterial plasma; format: in vivo
CB1 receptor = CB1 receptor (Homo sapiens, UniProt P21554); assay: Human brain PET with 11C-SD5024, compartmental modeling; format: in vivo; settings: for VT / K1 / k2 / vB (%): one-tissue compartment model, mean±SD; for VT: 120 min; for K1 / k2 / vB (%): seven subjects; for Intersubject Variability of VT (SD/mean): n=7, 120min
Chain of CB1 receptor (P21554 whole entry): as the sequence (Q71SP5 whole entry) above

Lipophilicity LogD7.4 = format: physicochemical; settings: n-octanol / 0.15 M sodium phosphate buffer pH 7.4, room temperature, 6 measurements
[3] = monkey striatum, calculated from caudate and putamen (Table 2)

N#[11C]c1ccc(S(=O)(=O)NC(=N)N2CC(c3ccccc3)C(c3ccc(Cl)cc3)=N2)cc1 (stereo not drawn) [^11C-SD5024, [cyano-^11C](−)-3-(4-chlorophenyl)-N-[(4-cyanophenyl)sulfonyl]-4-phenyl-4,5-dihydro-1H-pyrazole-1-carboxamidine]
pharmacological effects (subjective reports, vital signs, laboratory tests) [1]: no pharmacological effects
specific binding as proportion of VT (CB1 receptors; monkey brain, baseline vs receptor blockade with rimonabant 3 mg/kg i.v.): ~ 80%
Specific binding (%) (CB1 receptors; monkey striatum, (VT baseline – VT preblock)/VT baseline): 82%
VT (striatum) Baseline (CB1 receptors; [3]): 2.36 mL·cm^−3
VT (striatum) Preblocked (CB1 receptors; [3]): 0.44 mL·cm^−3
Specific binding (%) (CB1 receptors; monkey, Caudate, (VT baseline – VT preblocked)/VT baseline): 82% and 79%
VT Baseline (CB1 receptors; monkey, Caudate): 1.62 mL · cm^−3 and 2.79 mL · cm^−3
VT Preblocked (CB1 receptors; monkey, Caudate): 0.30 mL · cm^−3 and 0.60 mL · cm^−3
Specific binding (%) (CB1 receptors; monkey, Cerebellum, (VT baseline – VT preblocked)/VT baseline): 79% and 78%
VT Baseline (CB1 receptors; monkey, Cerebellum): 1.27 mL · cm^−3 and 2.34 mL · cm^−3
VT Preblocked (CB1 receptors; monkey, Cerebellum): 0.27 mL · cm^−3 and 0.51 mL · cm^−3
Specific binding (%) (CB1 receptors; monkey, Cingulate, (VT baseline – VT preblocked)/VT baseline): 84% and 82%
VT Baseline (CB1 receptors; monkey, Cingulate): 1.74 mL · cm^−3 and 3.58 mL · cm^−3
Specific binding (%) (CB1 receptors; monkey, Frontal Ctx, (VT baseline – VT preblocked)/VT baseline): 79% and 72%
VT Baseline (CB1 receptors; monkey, Frontal Ctx): 1.77 mL · cm^−3 and 3.13 mL · cm^−3
Specific binding (%) (CB1 receptors; monkey, Lateral Temporal Ctx, (VT baseline – VT preblocked)/VT baseline): 81% and 77%
VT Baseline (CB1 receptors; monkey, Lateral Temporal Ctx): 1.32 mL · cm^−3 and 2.52 mL · cm^−3
Specific binding (%) (CB1 receptors; monkey, Medial Temporal Ctx, (VT baseline – VT preblocked)/VT baseline): 71%
VT Baseline (CB1 receptors; monkey, Medial Temporal Ctx): 1.33 mL · cm^−3 and 2.54 mL · cm^−3
VT Preblocked (CB1 receptors; monkey, Medial Temporal Ctx): 0.39 mL · cm^−3 and 0.75 mL · cm^−3
Specific binding (%) (CB1 receptors; monkey, Occipital Ctx, (VT baseline – VT preblocked)/VT baseline): 78% and 71%
VT Baseline (CB1 receptors; monkey, Occipital Ctx): 1.07 mL · cm^−3 and 2.00 mL · cm^−3
Specific binding (%) (CB1 receptors; monkey, Parietal Ctx, (VT baseline – VT preblocked)/VT baseline): 81% and 74%
VT Baseline (CB1 receptors; monkey, Parietal Ctx): 1.39 mL · cm^−3 and 2.70 mL · cm^−3
Specific binding (%) (CB1 receptors; monkey, Putamen, (VT baseline – VT preblocked)/VT baseline): 83% and 81%
VT Baseline (CB1 receptors; monkey, Putamen): 1.84 mL · cm^−3 and 3.04 mL · cm^−3
VT Preblocked (CB1 receptors; monkey, Putamen): 0.31 mL · cm^−3 and 0.56 mL · cm^−3
Specific binding (%) (CB1 receptors; monkey, Thalamus, (VT baseline – VT preblocked)/VT baseline): 64% and 68%
VT Baseline (CB1 receptors; monkey, Thalamus): 0.83 mL · cm^−3 and 1.85 mL · cm^−3
VT Preblocked (CB1 receptors; monkey, Thalamus): 0.30 mL · cm^−3 and 0.59 mL · cm^−3
time of peak brain activity (CB1 receptors; monkey, baseline): ~ 60 min
brain activity (peak) (CB1 receptors; monkey, baseline, after i.v. injection): ~ 2 SUV
average SE of VT across brain regions (identifiability) (CB1 receptors; monkey, one-compartment model): 3.8%
free fraction in plasma (fP) [2]: too low to measure accurately
time of peak concentration in arterial plasma [2]: 75 s
peak concentration in arterial plasma ([2]; after i.v. injection): 24±8 SUV
fraction of parent as percentage of total plasma radioactivity ([2]; at 75 min): 51±13%
plasma concentrations of 11C-SD5024 relative to 11C-MePPEP ([2]; from 30 to 120 min): five-times
decrease of brain radioactivity from peak time (40 min) to end of scan (120 min) (CB1 receptor): 20%
time of peak brain activity (CB1 receptor): ~ 40 min
VT (CB1 receptor; Caudate, n=7): 2.31±0.55 mL·cm^−3
K1 (CB1 receptor; Caudate): 0.028±0.005 mL/cm^3/min
k2 (CB1 receptor; Caudate): 0.013 ± 0.003 min⁻¹
vB (%) (CB1 receptor; Caudate): 3.7±0.67%
VT (CB1 receptor; Cerebellum, n=7): 1.93±0.38 mL·cm^−3
K1 (CB1 receptor; Cerebellum): 0.030±0.006 mL/cm^3/min
k2 (CB1 receptor; Cerebellum): 0.016 ± 0.003 min⁻¹
vB (%) (CB1 receptor; Cerebellum): 6.4±0.69%
VT (CB1 receptor; Cingulate, n=7): 2.79±0.58 mL·cm^−3
K1 (CB1 receptor; Cingulate): 0.029±0.006 mL/cm^3/min
k2 (CB1 receptor; Cingulate): 0.011 ± 0.002 min⁻¹
vB (%) (CB1 receptor; Cingulate): 5.0±0.58%
Intersubject Variability of VT (SD/mean) (CB1 receptor; Frontal): 21%
VT (CB1 receptor; Frontal, n=7): 2.57±0.54 mL·cm^−3
K1 (CB1 receptor; Frontal): 0.032±0.006 mL/cm^3/min
k2 (CB1 receptor; Frontal): 0.013 ± 0.003 min⁻¹
vB (%) (CB1 receptor; Frontal): 4.4±0.66%
VT (CB1 receptor; Lateral temporal, n=7): 2.66±0.57 mL·cm^−3
K1 (CB1 receptor; Lateral temporal): 0.032±0.007 mL/cm^3/min
k2 (CB1 receptor; Lateral temporal): 0.012 ± 0.002 min⁻¹
vB (%) (CB1 receptor; Lateral temporal): 5.2±0.64%
VT (CB1 receptor; Medial temporal, n=7): 2.48±0.65 mL·cm^−3
K1 (CB1 receptor; Medial temporal): 0.023±0.005 mL/cm^3/min
k2 (CB1 receptor; Medial temporal): 0.010 ± 0.002 min⁻¹
vB (%) (CB1 receptor; Medial temporal): 5.3±0.58%
VT (CB1 receptor; Occipital, n=7): 2.00±0.38 mL·cm^−3
K1 (CB1 receptor; Occipital): 0.035±0.007 mL/cm^3/min
k2 (CB1 receptor; Occipital): 0.018 ± 0.003 min⁻¹
vB (%) (CB1 receptor; Occipital): 5.9±0.49%
VT (CB1 receptor; Parietal, n=7): 2.44±0.50 mL·cm^−3
K1 (CB1 receptor; Parietal): 0.034±0.006 mL/cm^3/min
k2 (CB1 receptor; Parietal): 0.014 ± 0.003 min⁻¹
vB (%) (CB1 receptor; Parietal): 4.8±0.50%
Intersubject Variability of VT (SD/mean) (CB1 receptor; Putamen): 22%
VT (CB1 receptor; Putamen, n=7): 3.16±0.70 mL·cm^−3
K1 (CB1 receptor; Putamen): 0.038±0.008 mL/cm^3/min
k2 (CB1 receptor; Putamen): 0.012 ± 0.003 min⁻¹
vB (%) (CB1 receptor; Putamen): 4.0±0.79%
peak brain uptake of 11C-SD5024 higher than that of 11C-OMAR by (CB1 receptor; Table 5): about 40%
peak brain uptake of 11C-SD5024 lower than that of 11C-MePPEP by (CB1 receptor; Table 5): about 20%
peak brain uptake of 11C-SD5024 relative to 11C-OMAR (CB1 receptor; Table 5): ~ 1.4 times
VT of 11C-SD5024 relative to 11C-OMAR (CB1 receptor; Table 6): about twice higher; also recorded: about two-fold greater; also recorded: about twice greater
Intersubject Variability of VT (SD/mean) (CB1 receptor; Thalamus): 24%
VT (CB1 receptor; Thalamus, n=7): 1.71±0.41 mL·cm^−3
K1 (CB1 receptor; Thalamus): 0.029±0.006 mL/cm^3/min
k2 (CB1 receptor; Thalamus): 0.017 ± 0.004 min⁻¹
vB (%) (CB1 receptor; Thalamus): 4.6±0.49%
accumulation of radiometabolites in brain (CB1 receptor; from time stability of VT): do not significantly accumulate in brain
intersubject variability for VT (Table 6) (CB1 receptor; n=7): ~ 24%
intersubject variability of VT, average value (CB1 receptor; n=7): 22%
average SE of VT across brain regions (identifiability) (CB1 receptor; one-compartment model): 1.8%
scan duration adequate to measure VT / CB1 receptors (CB1 receptor; truncation of the 120-min scan): 80 min
LogD7.4 (Lipophilicity LogD7.4): 3.79±0.09
